Results: patent publication US20100041597A1, “PEPTIDES TARGETED TO PROTEIN KINASE C ISOFORMS AND USES THEREOF” (priority 2005, published 2010)
Values belong to the molecule of their own block, whether it stands above or below them. Where no end group is shown, it is not given here.

What was measured:
[1] = test system: LS180 colon cancer tumours; experiment: LS180 colon cancer tumours in mice, combination with doxorubicin; format: in vivo; conditions: mice treated with only doxorubicin (and control cohorts)
Source text: Both in vitro and in vivo data support the efficacy of PhGα1 in limiting the effect of multi-drug resistance (MDR) in colorectal drug-resistant tumours when used in combination treatment with chemotherapy. Specifically, studies have shown that establishment of LS180 colon cancer tumours in mice (M1 stage) treated with PhGα1 in combination with an anthracycline chemotherapeutic, doxorubicin, was delayed approximately 100% (p<0.03) versus control cohorts and mice treated with only doxorubicin (28 days compared to 14 days). Results were also observed for tumour transition from the M1 to M2 stage.

PKC-α [2] = target: T1, PKC-α (Homo sapiens, UniProt P17252); experiment: In vitro competition with anti-PKC-α antibody, Protocol B (peptide added to cell extract before electrophoresis), IMR-32 cells; format: binding; parameters: subcellular localisation of endogenous PKC-α in IMR-32 cells; endogenous in cells; host or cells: IMR-32
Protocol: Peptides PRE 3 and PRE 4 (see Table 3) were tested for their ability to interfere with the binding of isoform-specific polyclonal antibodies (Santa Cruz Biotechnology, Inc.) to PKC-α, PKC-βI or PKC-βII using the general protocol described in Example 3.

PKC-α [3] = target: T1, PKC-α; experiment: In vitro competition with anti-PKC-α antibody on blotted cell lysate, Protocol A, IMR-32 cells; format: binding; parameters: subcellular localisation of endogenous PKC-α in IMR-32 cells; endogenous in cells; host or cells: IMR-32; conditions: Protocol A; for Band Intensity / Inhibition (%) / Relative Intensity (%): IMR-32, Table 4
Protocol: The ability of the peptides to interfere with the binding of a PKC-α-specific monoclonal antibody to PKC-α was determined using the following protocol.
Cell lysates from either IMR-32 (human neuroblastoma) cells or C6Cx43 cells (rat glioma transfected cells overexpressing connexin 43) were obtained using standard protocols and the proteins of the lysate were separated by SDS PAGE electrophoresis and electrotransferred onto a nitrocellulose membrane. […] A primary polyclonal antibody specific for PKC-α (Santa Cruz Biotechnology, Inc., CA) was then added (15 μg/ml) and the membrane incubated for a further 45 minutes. Finally, the primary antibody was detected with a secondary antibody conjugated to alkaline phosphatase using standard procedures. The intensity of the band corresponding to PKC-α was assessed by scanning and densitometry using the Gel-Pro software (Media Cybernetics) to obtain relative band intensities (average of 3 replicas). Control assays were conducted as described above except that blocking buffer without peptide was used.
The results are expressed as relative band intensity and as a percentage of the intensity of the corresponding band in the control assay (“Relative intensity (%)”). “% inhibition” relates to the percentage of the PKC-α band that is inaccessible to the antibody.

PKC-ε = experiment: In vitro competition with anti-PKC-ε antibody, Protocol B, IMR-32 cells; format: binding, human
Protocol: (§1) The ability of the peptides PRE 2 and PRE 3 (see Table 3) to interfere with the binding of a PKC-α-specific polyclonal antibody (Santa Cruz Biotechnology, Inc.) to PKC-α was determined using a modified version of the protocol outlined above in which the test peptide was added directly to the cell extract prior to electrophoresis at a concentration of either 5× or 15× the concentration of the protein applied to each well of the gel for the Western blots (20 μg).
Peptides PRE 2, PRE 3 and PRE 4 (see Table 3) were tested for their ability to interfere with the binding of isoform-specific polyclonal antibodies (Santa Cruz Biotechnology, Inc.) to PKC-ε using the general protocol described in Example 3. Two bands, representing alternate splicing variants of PKC-ε, were identified on the Western blot using this anti-PKC-ε antibody.

PKC-β [4] = experiment: In vitro competition with anti-PKC-β antibody, Protocol A, IMR-32 cells; format: binding, human; conditions: for Band Intensity / Inhibition (%) / Relative Intensity (%): PKC-β, IMR-32, Table 6
Protocol: Cell lysates from either IMR-32 (human neuroblastoma) cells or C6Cx43 cells (rat glioma transfected cells overexpressing connexin 43) were obtained using standard protocols and the proteins of the lysate were separated by SDS PAGE electrophoresis and electrotransferred onto a nitrocellulose membrane. The membrane was incubated for 30 minutes in blocking buffer (TBST) containing the test peptide at either 5× or 20× the concentrations of the primary antibody. A primary polyclonal antibody specific for PKC-α (Santa Cruz Biotechnology, Inc., CA) was then added (15 μg/ml) and the membrane incubated for a further 45 minutes. Finally, the primary antibody was detected with a secondary antibody conjugated to alkaline phosphatase using standard procedures. The intensity of the band corresponding to PKC-α was assessed by scanning and densitometry using the Gel-Pro software (Media Cybernetics) to obtain relative band intensities (average of 3 replicas). Control assays were conducted as described above except that blocking buffer without peptide was used.
Peptides PRE 1, PRE 2 and PRE 3 (see Table 3) were tested for their ability to interfere with the binding of a PKC-β-specific polyclonal antibody (Santa Cruz Biotechnology, Inc.) to PKC-β using the general protocol described in Example 1. […] It is worth noting in this regard that PKC-α and PKC-β belong to the same sub-group of PKCs (cPKCs).

PKC-β [5] = experiment: In vitro competition with anti-PKC-β antibody, Protocol B, IMR-32 cells; format: binding, human
Protocol: as §1
Peptides PRE 2 and PRE 3 (see Table 3) were tested for their ability to interfere with the binding of a PKC-β-specific polyclonal antibody (Santa Cruz Biotechnology, Inc.) to PKC-β using the general protocol described in Example 3.

Molecule: COc1cccc2c1C(=O)c1c(O)c3c(c(O)c1C2=O)C[C@@](O)(C(=O)CO)C[C@@H]3O[C@H]1C[C@H](N)[C@H](O)[C@H](C)O1 [doxorubicin]
time to establishment of LS180 tumours (M1 stage) [1]: 14 days

Band Intensity (PKC-α [2]; 100 μg, PKC-α, IMR-32, Table 7): 0.0103 | Inhibition (%) (PKC-α [2]; 100 μg, PKC-α, IMR-32, Table 7): 99.9% | Relative Intensity (%) (PKC-α [2]; 100 μg, PKC-α, IMR-32, Table 7): 0.135% | Band Intensity (PKC-α [3]; 75 μg peptide): 0.917 | Inhibition (%) (PKC-α [3]; 75 μg peptide): 56.1% | Relative Intensity (%) (PKC-α [3]; 75 μg peptide): 43.9% | Band Intensity (PKC-α [3]; 300 μg peptide): 0.192 | Inhibition (%) (PKC-α [3]; 300 μg peptide): 90.9% | Relative Intensity (%) (PKC-α [3]; 300 μg peptide): 9.1% | effect on antibody binding to PKC-α (PKC-α [3]): mask the antigenic site of PKC-α
Molecule: KDAQNLIGISL-NH2 [PRE 2]
effect on antibody binding to PKC-α (PKC-α [2]): effectively interfered with PKC-α antibody binding to PKC-α | effect on antibody binding to PKC-ε (PKC-ε): some cross-reactivity with PKC-ε | effect on antibody binding to PKC-β (PKC-β [4]): some cross reactivity | Band Intensity (PKC-β [4]; 75 μg): 0.800 | Inhibition (%) (PKC-β [4]; 75 μg): 31.0% | Relative Intensity (%) (PKC-β [4]; 75 μg): 69.0% | Band Intensity (PKC-β [4]; 300 μg): 0.403 | Inhibition (%) (PKC-β [4]; 300 μg): 65.3% | Relative Intensity (%) (PKC-β [4]; 300 μg): 34.7% | effect on antibody binding to PKC-β (PKC-β [5]): some cross reactivity | Band Intensity (PKC-β [5]; 100 μg, PKC-β, IMR-32, Table 8): 0.0322 | Inhibition (%) (PKC-β [5]; 100 μg, PKC-β, IMR-32, Table 8): 54.7% | Relative Intensity (%) (PKC-β [5]; 100 μg, PKC-β, IMR-32, Table 8): 45.3%
